Entries after “also recorded” stand apart in the source; their conditions may differ.
Experiments:
tumors = settings: clinical study; cited from earlier work
4T1 pulmonary metastases = experiment: Neovascular density (anti-Cav1 staining) within 4T1 lung metastases after treatment; type: in vivo, mouse
Experimental: Pulmonary metastasis studies with the 4T1 mouse mammary carcinoma-derived cell line (Aslakson et al. (1992) Cancer Res., 52:1399-1405) were carried out by injecting 1×10^4 cells in 50 μl serum free medium into the number 4 mammary fatpad to establish an orthotopic tumor which then spontaneously metastasized to the lungs. For visualization of the pulmonary metastasis burden, lungs were inflated with 15% India ink dye, washed, and bleached in Fekete's solution. For immunofluorescence detection of pulmonary metastasis vasculature, lungs were inflated with 50% OCT and frozen in OCT blocks followed by 4 μm sectioning using the CryoJane tape transfer system. Blood vessels within the metastatic nodules were visualized by fluorescence staining with rabbit anti-mouse Caveolin1 polyclonal antibody (Cat. #3238S, Cell Signaling Technology, Boston, MA). For quantitatively evaluating vessel density within the metastatic nodules, multiple fields were acquired per mouse lung on a Zeiss inverted microscope with 40× objective. The pixel density corresponding to the positive Cav1 signal per field was determined in Adobe Photoshop, and these values were then averaged to determine the overall mean value per mouse. For IDO1 inhibitor treatment studies, mice bearing established metastases at 3.5 weeks following 4T1 engraftment were administered 50 mg/kg epacadostat (ChemieTek; Indianapolis, IN) in 100 μl vehicle (3% N,N-dimethylacetamide, 10% 2-hydroxylpropyl-β-cyclodextrin) by oral gavage b.i.d. (twice daily) over 72 hours at which point the animals were euthanized for analysis. Positive control animals were administered a single intraperitoneal (i.p.) injection of 50 mg/kg cyclophosphamide (Baxter; Deefield, IL) in 100 μl sterile saline and euthanized 72 hours later for analysis. […]

[1] = tested on: large, vascularized tumors; settings: requires IFNγ receptor expression on normal host cells; cited from earlier work
[2] = tested on: lymphoma, lung cancer and sarcoma; settings: cited from earlier work
[3] = mouse, rat and dog; cited from earlier work
human xenograft tumor = settings: mice; cited from earlier work
4T1 lung metastases = experiment: Hypoxyprobe staining of hypoxic regions within 4T1 lung metastases; type: in vivo, mouse; settings: epacadostat 50 mg/kg oral gavage b.i.d. over 72 hours
Experimental: For IDO1 inhibitor treatment studies looking at tumor hypoxia, mice bearing established metastases at 3.5 weeks following 4T1 engraftment were administered either 50 mg/kg epacadostat (ChemieTek; Indianapolis, IN) in 100 μl vehicle (3% N,N-dimethylacetamide, 10% 2-hydroxylpropyl-β-cyclodextrin) by oral gavage b.i.d. (twice daily) over 72 hours, or 400 mg/kg indoximod (Sigma-Aldrich; St. Louis, MO) in 100 μl vehicle (0.5% Tween 80/0.5% Methylcellulose v/v in water) by oral gavage b.i.d. (twice daily) over 72 hours.
For visualizing regions of hypoxia within 4T1 lung metastases, the Hypoxyprobe™ Green Kit (Hydroxyprobe, Inc.; Burlington, MA) was used as per the manufacturer's instructions. 1 hour prior to euthanasia, mice were injected intravenously with 60 mg/kg Hypoxyprobe™ (pimonidazole HCl). Lung sections were stained with the FITC-conjugated mouse IgG1 monoclonal antibody (4.3.11.3) provided by the supplier that specifically binds to protein adducts of pimonidazole.

[4] = tested on: allogeneic mouse concepti; settings: in vivo; cited from earlier work

SMILES: Cn1cc(C[C@@H](N)C(=O)O)c2ccccc21 [indoximod, 1-methyl-D-tryptophan]
- sensitization of tumors to salvage chemotherapy (tumors): appeared to sensitize tumors to salvage chemotherapy

SMILES: O=P1(N(CCCl)CCCl)NCCCO1 (centres unmarked) [cyclophosphamide]
- metastatic tumor neovascularization, positive control (in words) (4T1 pulmonary metastases; single i.p. injection of 50 mg/kg, evaluated 72 hours later, compared with the effect of epacadostat): comparable
- tumor rejection [1]: immune-dependent rejection of large, vascularized tumors

SMILES: C=CC1=C(C)c2cc3[n-]c(cc4[n-]c(cc5nc(cc1n2)C(C)=C5C=C)c(C)c4CCC(=O)O)c(CCC(=O)O)c3C.[Zn+2] [ZnPPIX, zinc protoporphyrin IX]
- antitumor effect in mice [2]: effective in reducing lymphoma, lung cancer and sarcoma

SMILES: Cc1cccc(CC(=O)N2CCc3c2ccc(-c2cn(C)c4ncnc(N)c24)c3F)n1 [GSK2656157]
- blood clearance [3]: low to moderate
- oral bioavailability [3]: good
- human xenograft tumor growth (human xenograft tumor): delay of various human xenograft tumor growths
- weight loss and effect on pancreatic insulin production (human xenograft tumor): without significant weight loss and/or effect on pancreatic insulin production

SMILES: NS(=O)(=O)NCCNc1nonc1C(=NO)Nc1ccc(F)c(Br)c1 [epacadostat]
- reduction in metastatic tumor neovascularization relative to vehicle alone (4T1 pulmonary metastases; 50 mg/kg oral gavage b.i.d. over 72 hours, established 4T1 pulmonary metastases 3.5 weeks after engraftment, P<0.01): 3.2 fold
- metastatic tumor neovascularization relative to vehicle (in words) (4T1 pulmonary metastases; epacadostat 50 mg/kg oral gavage b.i.d. over 72 hours, established 4T1 pulmonary metastases): reduced level of neovascularization; also recorded: clear reduction in metastatic tumor neovascularization
- hypoxia in metastatic tumor (Hypoxyprobe staining) relative to vehicle (4T1 lung metastases): clear evidence of elevated hypoxia

SMILES: Cn1cc(-c2ccc3c(c2)CCN3C(=O)Cc2cccc(C(F)(F)F)c2)c2c(N)ncnc21 [GSK2606414]
- blood clearance [3]: low to moderate
- oral bioavailability [3]: good

SMILES: Cn1cc(C[C@H](N)C(=O)O)c2ccccc21 [1MT, 1-methyl-tryptophan]
- rejection of allogeneic mouse concepti [4]: could elicit T cell-dependent rejection of allogeneic mouse concepti

Source: patent US20240374566A1, “METHODS AND COMPOSITIONS FOR THE TREATMENT OF CANCER” (Lankenau Institute for Medical Resesarch, priority 2017, published 2024)
